Experimental data as given in BindingDB's records for doi:10.1021/jm060521i (Karo Bio, 2006).

Target: T1, Thyroid hormone receptor alpha (Homo sapiens, UniProt P10827)
T1 sequence (P10827 whole entry): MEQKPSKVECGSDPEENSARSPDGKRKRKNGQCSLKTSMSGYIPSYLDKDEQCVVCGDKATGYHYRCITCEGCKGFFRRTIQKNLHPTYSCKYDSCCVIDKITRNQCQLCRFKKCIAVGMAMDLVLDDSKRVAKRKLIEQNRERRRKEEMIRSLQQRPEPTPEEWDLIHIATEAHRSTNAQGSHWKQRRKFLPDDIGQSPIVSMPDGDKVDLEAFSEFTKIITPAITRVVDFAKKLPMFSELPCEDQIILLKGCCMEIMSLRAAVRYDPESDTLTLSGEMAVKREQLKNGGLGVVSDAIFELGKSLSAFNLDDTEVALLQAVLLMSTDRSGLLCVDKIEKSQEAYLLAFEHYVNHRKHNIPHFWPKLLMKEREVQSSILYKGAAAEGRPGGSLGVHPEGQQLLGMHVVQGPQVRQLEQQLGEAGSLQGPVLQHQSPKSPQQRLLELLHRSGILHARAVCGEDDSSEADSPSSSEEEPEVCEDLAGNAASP
Assay: TRalpha-Binding Assay and Thyroid Response Element (TRAFalpha1) Reporter Assay.
Details: pH 7; 4 °C
Text: EC50 is the concentration of compound required to inhibit 50% of T3-induced TRalpha-activation in CHOK1 cells stably transfected with hTRalpha using alkaline phosphatase reporter assay.

CC(C)c1cc(Oc2c(Br)cc(CCC(=O)O)cc2Br)cc(/C=C/c2ccncc2)c1O [3-{3,5-dibromo-4-[4-hydroxy-3-(propan-2-yl)-5-[(E)-2-(pyridin-4-yl)ethenyl]phenoxy]phenyl}propanoic acid]
EC50: 32 nM
